Our source for the IC50 and viability values is patent publication US9169241B2, “Quinolinyloxyphenylsulfonamides” (Max-Planck-Gesellschaft Zur Forderung der Wissenschaften …, priority 2009, dated 2015).

Each structure is given as a SMILES string. pIC50: −log10 of the molar value. Read-outs that look alike come from different tables or passages of the source. Where only a bound is given, the exact number is not on record here.

Common to all, as to type: cell-based
Assay [1] relates to tumor cell. The assay is described as follows: Matrigel outgrowth assay/branching assay (Table Va). The gist of the method:
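Cells (5000/well) were seeded onto polymerized 3 mg/ml Matrigel with compound at 3.125, 1.56 or 0.78 μM versus DMSO. Branching was imaged by inverted microscopy (5× objective) at 48, 72 and 96 h. Only concentrations giving total branching inhibition scored positive.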

Assay [2] relates to cells. The assay is described as follows: Boyden chamber migration assay (Table VI). Particulars: Homo sapiens, Hs-578T, 16 h, Hs578T cells; 16 h migration. The gist of the method:
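Migration read-out is a count of fixed cells on the underside of an […] insert membrane after 16 h. Chemoattractant was medium with 10% FCS in the lower chamber; 20000 cells started in serum-free medium with 0.1% BSA above, and those left on top were removed by swab.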

The test system of assay [3] is viable cells in culture. Kind of assay: Cell viability assay at 10 μM (CellTiter-Glo, Table VII).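 Also: graded A 0-20%; B 21-40%; C 41-60%; D over 60% viable cells relative to DMSO control.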 Particulars: compound 10 μM, 72 h. The gist of the method:
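Cells were seeded at 1000 cells/well in 96-well plates in 100 μl culture medium and incubated for 72 h with 10 μM compound or a DMSO control. ATP content, which reflects metabolically active and therefore viable cells, was then determined by CellTiter-Glo luminescence (Promega) per the manufacturer's instructions and expressed relative to the DMSO control.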
In general terms: Cellular ATP, detected with luciferase, serves as a proxy for viable cell number.

[4] abbreviates: Homo sapiens, C8161 cells, read-out: Total branching inhibition in Matrigel C8161.
[5] abbreviates: Homo sapiens, Hs-578T, Hs578T cells, read-out: Total branching inhibition in Matrigel Hs578T.
Setting [6] is: U118 cells, read-out: Total branching inhibition in Matrigel U118.
Where [7] appears, read: U138 cells, read-out: Total branching inhibition in Matrigel U138.
[8] abbreviates: Homo sapiens, HCT-116, HCT116 def, read-out: percentage (%) of viable cells HCT 116def.
[9] abbreviates: Homo sapiens, HCT-116, HCT116 wt, read-out: percentage (%) of viable cells HCT 116wt.
[10] abbreviates: Homo sapiens, HT-29, HT29, read-out: percentage (%) of viable cells HT29.
[11] abbreviates: Homo sapiens, NCI-H358, H358, read-out: percentage (%) of viable cells H358.
The mark [12] stands for this setting: Homo sapiens, NCI-H1650, H1650, read-out: percentage (%) of viable cells H1650.
Setting [13] is: Homo sapiens, NCI-H1666, H1666, read-out: percentage (%) of viable cells H1666.
Setting [14] is: Homo sapiens, NCI-H1975, H1975, read-out: percentage (%) of viable cells H1975.
Where [15] appears, read: Homo sapiens, NCI-H1993, H1993, read-out: percentage (%) of viable cells H1993.
Setting [16] is: Homo sapiens, A549, read-out: percentage (%) of viable cells A549.
[17] abbreviates: Homo sapiens, HCC827, read-out: percentage (%) of viable cells HCC827.
The mark [18] stands for this setting: Homo sapiens, SW480, read-out: percentage (%) of viable cells SW480.
Where [19] appears, read: RKO, read-out: percentage (%) of viable cells RKO.

Consider `COc1cc2c(Oc3ccc(NS(=O)(=O)c4ccccc4[N+](=O)[O-])cc3F)ccnc2cc1OCCCN1CCN(C)CC1` [Example 21, N-(3-Fluoro-4-{6-methoxy-7-[3-(4-methyl-piperazin-1-yl)-propoxy]-quinolin-4-yloxy}-phenyl)-2-nitro-benzenesulfonamide], for which the pIC50 is 4.30 to 5.30 in assay [1] (setting [4]); no less than 5.30 in assay [1] (setting [5]); 4.30 to 5.30 in assay [1] (setting [6]); 4.30 to 5.30 in assay [1] (setting [7]); no less than 5.30 in assay [2]. The viability at 10 µM in assay [3] (setting [8]) is 41 to 60%; in assay [3] (setting [9]), greater than 60%; in assay [3] (setting [10]), 21 to 40%; in assay [3] (setting [11]), 21 to 40%; in assay [3] (setting [12]), 41 to 60%; in assay [3] (setting [13]), 41 to 60%. Besides, the viability at 10 µM in assay [3] (setting [14]) is 41 to 60%; in assay [3] (setting [15]), 21 to 40%; in assay [3] (setting [16]), greater than 60%; in assay [3] (setting [17]) it was greater than 60%; in assay [3] (setting [18]), 21 to 40%; in assay [3] (setting [19]) it was 41 to 60%.

As to `COc1cc2c(Oc3ccc(NS(=O)(=O)c4ccccc4OC(F)(F)F)cc3F)ccnc2cc1OCCCN1CCN(C)CC1` [Example 25, N-(3-Fluoro-4-{6-methoxy-7-[3-(4-methyl-piperazin-1-yl)-propoxy]-quinolin-4-yloxy}-phenyl)-2-trifluoromethoxy-benzenesulfonamide], the pIC50 in assay [1] (setting [4]) is no less than 5.30; in assay [1] (setting [5]) it was no less than 5.30; in assay [1] (setting [6]), no less than 5.30; in assay [1] (setting [7]), 4.30 to 5.30; in assay [2], no less than 5.30.

As for `COc1cc2c(Oc3ccc(NS(=O)(=O)c4ccccc4Cl)cc3F)ccnc2cc1OCCCN1CCN(C)CC1` [Example 29, 2-Chloro-N-(3-fluoro-4-{6-methoxy-7-[3-(4-methyl-piperazin-1-yl)-propoxy]-quinolin-4-yloxy}-phenyl)-benzenesulfonamide], the pIC50 is no less than 5.30 in assay [1] (setting [4]); no less than 5.30 in assay [1] (setting [5]); no less than 5.30 in assay [1] (setting [6]); 4.30 to 5.30 in assay [1] (setting [7]); no less than 5.30 in assay [2]. In addition, the viability at 10 µM in assay [3] (setting [8]) lay within 0 to 20%; in assay [3] (setting [9]), 0 to 20%; in assay [3] (setting [10]) it was 0 to 20%; in assay [3] (setting [11]) it was 21 to 40%; in assay [3] (setting [12]) it was 21 to 40%; in assay [3] (setting [13]), 41 to 60%. In addition, the viability at 10 µM in assay [3] (setting [14]) lay in the range of 0 to 20%; in assay [3] (setting [15]) it was 0 to 20%; in assay [3] (setting [16]), 41 to 60%; in assay [3] (setting [17]) it was 21 to 40%; in assay [3] (setting [18]), 0 to 20%; in assay [3] (setting [19]), 0 to 20%.

On to `COc1cc2c(Oc3ccc(NS(=O)(=O)c4c(Cl)cccc4Cl)cc3F)ccnc2cc1OCCCN1CCN(C)CC1` [Example 32, 2,6-Dichloro-N-(3-fluoro-4-{6-methoxy-7-[3-(4-methyl-piperazin-1-yl)-propoxy]-quinolin-4-yloxy}-phenyl)-benzenesulfonamide], for which the pIC50 in assay [1] (setting [4]) is no less than 5.30; in assay [1] (setting [5]), no less than 5.30; in assay [1] (setting [6]) it was no less than 5.30; in assay [1] (setting [7]) it was 4.30 to 5.30; in assay [2] it was no less than 5.30. In addition, the viability at 10 µM in assay [3] (setting [8]) is 21 to 40%; in assay [3] (setting [9]) it was 0 to 20%; in assay [3] (setting [10]), 0 to 20%; in assay [3] (setting [11]), 0 to 20%; in assay [3] (setting [12]) it was 21 to 40%; in assay [3] (setting [13]) it was 41 to 60%. The viability at 10 µM in assay [3] (setting [14]) was 21 to 40%; in assay [3] (setting [15]), 0 to 20%; in assay [3] (setting [16]) it was 41 to 60%; in assay [3] (setting [17]), 41 to 60%; in assay [3] (setting [18]), 21 to 40%; in assay [3] (setting [19]), 21 to 40%.

On to `COc1cc2c(Oc3ccc(NS(=O)(=O)c4ccccc4OC)cc3F)ccnc2cc1OCCCN1CCN(C)CC1` [Example 33, N-(3-Fluoro-4-{6-methoxy-7-[3-(4-methyl-piperazin-1-yl)-propoxy]-quinolin-4-yloxy}-phenyl)-2-methoxy-benzenesulfonamide], for which the pIC50 in assay [1] (setting [4]) is no less than 5.30; in assay [1] (setting [5]), no less than 5.30; in assay [1] (setting [6]), no less than 5.30; in assay [1] (setting [7]), 4.30 to 5.30; in assay [2], no less than 5.30. Besides, the viability at 10 µM in assay [3] (setting [8]) was 21 to 40%; in assay [3] (setting [9]), 0 to 20%; in assay [3] (setting [10]), 0 to 20%; in assay [3] (setting [11]), 21 to 40%; in assay [3] (setting [12]), greater than 60%; in assay [3] (setting [13]), 21 to 40%. In addition, the viability at 10 µM was 21 to 40% in assay [3] (setting [14]); 0 to 20% in assay [3] (setting [15]); 41 to 60% in assay [3] (setting [16]); 21 to 40% in assay [3] (setting [17]); 0 to 20% in assay [3] (setting [18]); 0 to 20% in assay [3] (setting [19]).

For the molecule `COc1cc2c(Oc3ccc(NS(=O)(=O)c4cc(Cl)cc(Cl)c4OC)cc3F)ccnc2cc1OCCCN1CCCCC1` [Example 34, 3,5-Dichloro-N-{3-fluoro-4-[6-methoxy-7-(3-piperidin-1-yl-propoxy)-quinolin-4-yloxy]-phenyl}-2-methoxy-benzenesulfonamide], the pIC50 in assay [1] (setting [4]) was no less than 5.30; in assay [1] (setting [5]), no less than 5.30; in assay [1] (setting [6]), no less than 5.30; in assay [1] (setting [7]), 4.30 to 5.30; in assay [2], no less than 5.30. Moreover, the viability at 10 µM in assay [3] (setting [8]) is 21 to 40%; in assay [3] (setting [9]), 0 to 20%; in assay [3] (setting [10]), 21 to 40%; in assay [3] (setting [11]), 0 to 20%; in assay [3] (setting [12]), 21 to 40%; in assay [3] (setting [13]), 21 to 40%. The viability at 10 µM in assay [3] (setting [14]) was 0 to 20%; in assay [3] (setting [15]), 0 to 20%; in assay [3] (setting [16]) it was greater than 60%; in assay [3] (setting [17]) it was greater than 60%; in assay [3] (setting [18]), 0 to 20%; in assay [3] (setting [19]) it was 0 to 20%.

`COc1cc2c(Oc3ccc(NS(=O)(=O)c4cc(Cl)cc(Cl)c4OC)cc3F)ccnc2cc1OCCCN1CCN(C)CC1` [Example 35, 3,5-Dichloro-N-(3-fluoro-4-{6-methoxy-7-[3-(4-methyl-piperazin-1-yl)-propoxy]-quinolin-4-yloxy}-phenyl)-2-methoxy-benzenesulfonamide]: the pIC50 in assay [1] (setting [4]) was no less than 5.30; in assay [1] (setting [5]) it was no less than 5.30; in assay [1] (setting [6]), no less than 5.30; in assay [1] (setting [7]), 4.30 to 5.30; in assay [2], no less than 5.30. Moreover, the viability at 10 µM lay within 21 to 40% in assay [3] (setting [8]); 0 to 20% in assay [3] (setting [9]); 0 to 20% in assay [3] (setting [10]); 0 to 20% in assay [3] (setting [11]); 21 to 40% in assay [3] (setting [12]); 21 to 40% in assay [3] (setting [13]). The viability at 10 µM in assay [3] (setting [14]) is 0 to 20%; in assay [3] (setting [15]), 21 to 40%; in assay [3] (setting [16]), greater than 60%; in assay [3] (setting [17]) it was 41 to 60%; in assay [3] (setting [18]), 0 to 20%; in assay [3] (setting [19]) it was 41 to 60%.

As to `COc1cc2c(Oc3ccc(NS(=O)(=O)c4cccc(C#N)c4)cc3F)ccnc2cc1OCCCN1CCCC(C)C1` (stereo not shown) [Example 41, 3-Cyano-N-(3-fluoro-4-{6-methoxy-7-[3-(3-methyl-piperidin-1-yl)-propoxy]-quinolin-4-yloxy}-phenyl)-benzenesulfonamide], the pIC50 in assay [1] (setting [4]) is no less than 5.30; in assay [1] (setting [5]), no less than 5.30; in assay [1] (setting [6]), no less than 5.30; in assay [1] (setting [7]) it was 4.30 to 5.30; in assay [2] it was no less than 5.30. Also, the viability at 10 µM was 0 to 20% in assay [3] (setting [8]); 41 to 60% in assay [3] (setting [9]); 21 to 40% in assay [3] (setting [10]); 0 to 20% in assay [3] (setting [11]); 41 to 60% in assay [3] (setting [12]); 21 to 40% in assay [3] (setting [13]). Moreover, the viability at 10 µM was 0 to 20% in assay [3] (setting [14]); 21 to 40% in assay [3] (setting [15]); 21 to 40% in assay [3] (setting [16]); 41 to 60% in assay [3] (setting [17]); 0 to 20% in assay [3] (setting [18]); 0 to 20% in assay [3] (setting [19]).
